From patent US9433212B2, “Plant growth regulator and method for using the same” (NIHON NOHYAKU CO., LTD., priority 2011, dated 2016)

Assays:
Type in all cases: in vivo
Scirpophaga incertulas = experiment: Test Example 1: control of Scirpophaga incertulas (dead hearts) in paddy field; details: for Percentage of S. incertulas-caused dead hearts: applied once 10 days after transplantation, assessed 43 days after transplantation; for Percentage of control of S. incertulas: 43 days after transplantation
Text: (§1) Paddy rice plants were transplanted to an experimental paddy field (50 m^2, planted with 1250 paddy rice plants on average), and 10 days later, granules containing flubendiamide as an active ingredient were applied once at the predetermined doses. At 43 days after the transplantation, in 10 rice plants chosen at random, the percentage of Scirpophaga incertulas-caused dead hearts per plant, the percentage of control of Scirpophaga incertulas, the stem number per plant, and the percentage of increase in the stem number were measured. To exclude the positive effect of the insecticidal action of flubendiamide on the growth of paddy rice plants, chlorantraniliprole, which has an equivalent insecticidal action, was used as a control agrochemical.

paddy rice plants = experiment: Test Example 1: increase in stem number (promotion of tillering) of paddy rice plants; details: for Stem number/plant: 43 days after transplantation; for Percentage of increase in stem number: non-treatment = 100
Text: as §1

[1] = tested on: germinating rice seeds (variety: Nihonbare); experiment: Test Example 2: rooting promotion and plant height growth in paddy rice plants (agar test); details: 25 ppm in 0.7% agar, 8 days after seeding
Procedure: A 0.7% agar solution containing 25 ppm of flubendiamide was poured into a glass cylinder (3 cm diameter×10 cm) and allowed to be solidified. Onto the solidified agar, ten germinating rice seeds (variety: Nihonbare) were sown. Then, the top of the cylinder was covered with Japanese paper and the cylinder was placed in a thermostatic chamber (light-dark cycle: 16 hours of light and 8 hours of dark, relative humidity: 60 to 70%) at 25° C. At 8 days after the seeding, the lengths of the longest root (primary root) and the stem-and-leaf part extending from each seed-rice were measured and the averages were calculated. The percentages of elongation were also calculated with the proviso that the non-treatment levels were set as 100.

[2] = tested on: rice plants (variety: Takanari); experiment: Test Example 3: yield increase (numbers of panicles and unhulled rice grains) of paddy rice plants; details: for Panicle number/plant / Unhulled rice grain number/plant: harvest at 100 days; for Percentage of increase (panicle number) / Percentage of increase (unhulled rice grain number): non-treatment = 100
Procedure: Rice plants (variety: Takanari) of the 6.5- to 7-leaf stage were transplanted to 1-m^2 plots of a paddy field, and 2 or 12 days later, flubendiamide granules were applied at the predetermined doses. The test was performed in 4 replications. At 100 days after the transplantation, the rice plants were harvested, the numbers of panicles and unhulled rice grains per plant were measured and the averages were calculated. The percentages of increase were also calculated with the proviso that the non-treatment levels were set as 100.

[3] = 35 g a.i./ha granules applied 2 days after transplantation
[4] = 35 g a.i./ha granules applied 12 days after transplantation
[5] = 35 g a.i./ha, applied 2 days after transplantation
[6] = 35 g a.i./ha, applied 12 days after transplantation
[7] = 70 g a.i./ha granules applied 2 days after transplantation
[8] = 70 g a.i./ha granules applied 12 days after transplantation
[9] = 70 g a.i./ha, applied 2 days after transplantation
[10] = 70 g a.i./ha, applied 12 days after transplantation
[11] = regardless of application time and dose

SMILES: Cc1cc(C(F)(C(F)(F)F)C(F)(F)F)ccc1NC(=O)c1cccc(I)c1C(=O)NC(C)(C)CS(C)(=O)=O [Flubendiamide, 3-iodo-N′-(2-mesyl-1,1-dimethylethyl)-N-{4-[1,2,2,2-tetrafluoro-1-(trifluoromethyl)ethyl]-o-tolyl}phthalamide]
- Percentage of S. incertulas-caused dead hearts (Scirpophaga incertulas; 70 g a.i./ha granules): 0.48%
- Percentage of control of S. incertulas (Scirpophaga incertulas; 70 g a.i./ha): 87.3%
- Percentage of S. incertulas-caused dead hearts (Scirpophaga incertulas; 90 g a.i./ha granules): 0.34%
- Percentage of control of S. incertulas (Scirpophaga incertulas; 90 g a.i./ha): 91.0%
- Percentage of S. incertulas-caused dead hearts (Scirpophaga incertulas; 120 g a.i./ha granules): 0.30%
- Percentage of control of S. incertulas (Scirpophaga incertulas; 120 g a.i./ha): 92.1%
- Stem number/plant (paddy rice plants; 70 g a.i./ha): 39.6 /plant
- Percentage of increase in stem number (paddy rice plants; 70 g a.i./ha): 178%
- Stem number/plant (paddy rice plants; 90 g a.i./ha): 38.0 /plant
- Percentage of increase in stem number (paddy rice plants; 90 g a.i./ha): 171%
- Stem number/plant (paddy rice plants; 120 g a.i./ha): 39.15 /plant
- Percentage of increase in stem number (paddy rice plants; 120 g a.i./ha): 176%
- Increase in stem number per plant compared with the non-treatment level (paddy rice plants; flubendiamide treatment plots, regardless of dose (70-120 g a.i./ha)): about 17
- Average root length ([1]; 25° C.): 6.7 cm
- Average stem-and-leaf length ([1]; 25° C.): 3.9 cm
- Percentage of elongation in root length ([1]; non-treatment = 100): 160%
- Percentage of elongation in stem-and-leaf length ([1]; non-treatment = 100): 170%
- Panicle number/plant [2, 3]: 10.4 /plant
- Unhulled rice grain number/plant [2, 3]: 1360.3 /plant
- Panicle number/plant [2, 4]: 11.9 /plant
- Unhulled rice grain number/plant [2, 4]: 1528.0 /plant
- Percentage of increase (panicle number) [2, 5]: 110%
- Percentage of increase (unhulled rice grain number) [2, 5]: 110%
- Percentage of increase (panicle number) [2, 6]: 126%
- Percentage of increase (unhulled rice grain number) [2, 6]: 124%
- Panicle number/plant [2, 7]: 11.2 /plant
- Unhulled rice grain number/plant [2, 7]: 1484.0 /plant
- Panicle number/plant [2, 8]: 12.5 /plant
- Unhulled rice grain number/plant [2, 8]: 1600.0 /plant
- Percentage of increase (panicle number) [2, 9]: 119%
- Percentage of increase (unhulled rice grain number) [2, 9]: 120%
- Percentage of increase (panicle number) [2, 10]: 132%
- Percentage of increase (unhulled rice grain number) [2, 10]: 130%
- Numbers of panicles versus non-treatment levels [2, 11]: significantly increased
- Numbers of unhulled rice grains versus non-treatment levels [2, 11]: significantly increased

SMILES: CNC(=O)c1cc(Cl)cc(C)c1NC(=O)c1cc(Br)nn1-c1ncccc1Cl [Chlorantraniliprole]
- Percentage of control of S. incertulas (Scirpophaga incertulas; 40 g a.i./ha): 90.2%
- Percentage of S. incertulas-caused dead hearts (Scirpophaga incertulas; 40 g a.i./ha): 0.37%
- Stem number/plant (paddy rice plants; 40 g a.i./ha): 26.35 /plant
- Percentage of increase in stem number (paddy rice plants; 40 g a.i./ha): 119%
- Percentage of increase in stem number (paddy rice plants; 40 g a.i./ha, listed as chlorantraniliprole): about 120%
- Increase in stem number per plant compared with the non-treatment level (paddy rice plants; chlorantraniliprole treatment plot (40 g a.i./ha)): about four
